Source: article PMC4818591 (ChemMedChem, 2015)
Read-outs that look alike come from different tables or passages of the source.

Legend:
Assay type in all cases: biochemical
HDAC1 = HDAC1 (Homo sapiens, UniProt Q13547); assay: HDAC1 isozyme inhibition; conditions: for SI HDAC1/6: selectivity index
HDAC2 = HDAC2 (Homo sapiens, UniProt Q92769); assay: HDAC2 isozyme inhibition; conditions: for SI HDAC2/6: selectivity index
HDAC3 = HDAC3 (Homo sapiens, UniProt O15379); assay: HDAC3 isozyme inhibition; conditions: for SI HDAC3/6: selectivity index
HDAC10 = molecular target: T1, HDAC10 (Homo sapiens, UniProt Q969S8); assay: HDAC10 isozyme inhibition; conditions: for SI HDAC10/6: selectivity index
T1 sequence (Q969S8 1-669): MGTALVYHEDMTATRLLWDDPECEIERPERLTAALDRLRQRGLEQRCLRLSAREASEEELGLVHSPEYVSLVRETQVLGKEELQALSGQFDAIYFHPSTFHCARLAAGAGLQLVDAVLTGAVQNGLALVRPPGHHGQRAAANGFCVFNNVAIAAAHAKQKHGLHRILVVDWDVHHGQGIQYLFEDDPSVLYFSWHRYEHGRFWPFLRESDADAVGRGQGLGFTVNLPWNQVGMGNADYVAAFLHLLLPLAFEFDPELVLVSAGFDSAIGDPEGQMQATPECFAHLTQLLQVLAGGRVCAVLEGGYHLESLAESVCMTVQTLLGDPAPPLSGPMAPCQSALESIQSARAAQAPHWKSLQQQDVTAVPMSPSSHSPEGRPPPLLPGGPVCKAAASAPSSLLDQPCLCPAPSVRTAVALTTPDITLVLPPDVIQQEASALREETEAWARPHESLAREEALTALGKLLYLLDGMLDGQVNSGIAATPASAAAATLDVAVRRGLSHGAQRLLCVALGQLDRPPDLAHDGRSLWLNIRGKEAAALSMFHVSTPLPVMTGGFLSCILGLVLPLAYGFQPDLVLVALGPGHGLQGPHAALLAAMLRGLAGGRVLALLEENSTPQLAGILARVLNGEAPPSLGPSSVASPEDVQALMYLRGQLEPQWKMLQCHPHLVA

HDAC6 = molecular target: T2, HDAC6 (Homo sapiens, UniProt Q9UBN7); assay: HDAC6 isozyme inhibition; conditions: for selectivity over HDAC1 and HDAC3: HDAC6 versus HDAC1 and HDAC3; for selectivity over HDAC2 and HDAC10: HDAC6 versus HDAC2 and HDAC10
T2 sequence (Q9UBN7 1-1215): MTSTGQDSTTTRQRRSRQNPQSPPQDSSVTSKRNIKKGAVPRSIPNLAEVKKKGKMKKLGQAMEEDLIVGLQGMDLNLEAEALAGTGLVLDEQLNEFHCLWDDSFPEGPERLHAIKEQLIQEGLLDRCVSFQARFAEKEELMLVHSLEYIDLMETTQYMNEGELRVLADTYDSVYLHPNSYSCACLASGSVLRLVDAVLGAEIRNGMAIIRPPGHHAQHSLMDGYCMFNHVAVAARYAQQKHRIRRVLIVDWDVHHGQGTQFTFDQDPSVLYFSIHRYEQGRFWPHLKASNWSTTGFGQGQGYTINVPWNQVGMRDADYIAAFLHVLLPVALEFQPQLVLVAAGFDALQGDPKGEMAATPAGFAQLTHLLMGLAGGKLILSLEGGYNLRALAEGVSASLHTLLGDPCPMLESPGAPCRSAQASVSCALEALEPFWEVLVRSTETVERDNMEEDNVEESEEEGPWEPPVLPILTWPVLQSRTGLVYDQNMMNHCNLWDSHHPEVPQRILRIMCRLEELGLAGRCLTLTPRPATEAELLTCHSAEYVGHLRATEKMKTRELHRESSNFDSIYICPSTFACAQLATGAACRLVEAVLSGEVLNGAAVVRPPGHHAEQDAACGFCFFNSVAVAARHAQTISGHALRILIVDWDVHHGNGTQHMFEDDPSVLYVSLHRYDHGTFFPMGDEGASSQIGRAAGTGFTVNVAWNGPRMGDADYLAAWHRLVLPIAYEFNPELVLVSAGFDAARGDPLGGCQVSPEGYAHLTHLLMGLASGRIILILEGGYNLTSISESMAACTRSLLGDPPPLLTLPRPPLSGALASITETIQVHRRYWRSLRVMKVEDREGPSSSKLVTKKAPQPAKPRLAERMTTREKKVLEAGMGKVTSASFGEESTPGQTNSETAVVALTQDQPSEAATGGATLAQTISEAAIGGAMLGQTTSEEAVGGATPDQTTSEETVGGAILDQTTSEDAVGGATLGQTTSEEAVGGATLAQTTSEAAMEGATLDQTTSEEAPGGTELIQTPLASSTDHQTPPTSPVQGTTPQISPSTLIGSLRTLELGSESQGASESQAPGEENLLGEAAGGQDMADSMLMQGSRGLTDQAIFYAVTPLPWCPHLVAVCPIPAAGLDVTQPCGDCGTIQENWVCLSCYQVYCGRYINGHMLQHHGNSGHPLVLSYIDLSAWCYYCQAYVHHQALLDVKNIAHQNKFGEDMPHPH

[1] = read-out: HDAC Isoform, IC50, Class I, 2, singlet, 10-dose IC50 mode, 3-fold serial dilution starting at 30 μM, >50000 = no inhibition at 50 μM
[2] = read-out: HDAC Isoform, IC50, Class II, 10, singlet, 10-dose IC50 mode, 3-fold serial dilution starting at 30 μM, >50000 = no inhibition at 50 μM
[3] = read-out: HDAC Isoform, IC50, Class I, 1, singlet, 10-dose IC50 mode, 3-fold serial dilution starting at 30 μM, >50000 = no inhibition at 50 μM
[4] = read-out: HDAC Isoform, IC50, Class I, 3, singlet, 10-dose IC50 mode, 3-fold serial dilution starting at 30 μM, >50000 = no inhibition at 50 μM
[5] = read-out: HDAC Isoform, IC50, Class II, 6, duplicate, 10-dose IC50 mode, 3-fold serial dilution starting at 30 μM, average ± standard deviation

Sequence of HDAC3 (O15379 whole entry): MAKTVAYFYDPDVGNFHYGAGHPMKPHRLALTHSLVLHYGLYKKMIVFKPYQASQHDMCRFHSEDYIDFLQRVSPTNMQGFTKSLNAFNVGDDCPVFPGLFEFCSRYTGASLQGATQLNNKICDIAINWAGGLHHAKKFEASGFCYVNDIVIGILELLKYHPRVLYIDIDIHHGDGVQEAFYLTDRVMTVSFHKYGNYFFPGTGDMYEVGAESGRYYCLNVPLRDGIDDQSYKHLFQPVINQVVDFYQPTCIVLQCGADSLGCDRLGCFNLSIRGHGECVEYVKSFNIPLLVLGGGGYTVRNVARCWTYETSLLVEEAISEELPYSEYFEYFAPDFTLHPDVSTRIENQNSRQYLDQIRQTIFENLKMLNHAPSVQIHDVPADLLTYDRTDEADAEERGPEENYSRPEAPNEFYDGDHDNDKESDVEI
Sequence of HDAC3 (Q9Y618 395-489 partner limits assumed): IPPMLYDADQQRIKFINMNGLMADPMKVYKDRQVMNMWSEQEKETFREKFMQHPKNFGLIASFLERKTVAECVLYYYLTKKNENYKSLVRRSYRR
Sequence of HDAC2 (Q92769 whole entry): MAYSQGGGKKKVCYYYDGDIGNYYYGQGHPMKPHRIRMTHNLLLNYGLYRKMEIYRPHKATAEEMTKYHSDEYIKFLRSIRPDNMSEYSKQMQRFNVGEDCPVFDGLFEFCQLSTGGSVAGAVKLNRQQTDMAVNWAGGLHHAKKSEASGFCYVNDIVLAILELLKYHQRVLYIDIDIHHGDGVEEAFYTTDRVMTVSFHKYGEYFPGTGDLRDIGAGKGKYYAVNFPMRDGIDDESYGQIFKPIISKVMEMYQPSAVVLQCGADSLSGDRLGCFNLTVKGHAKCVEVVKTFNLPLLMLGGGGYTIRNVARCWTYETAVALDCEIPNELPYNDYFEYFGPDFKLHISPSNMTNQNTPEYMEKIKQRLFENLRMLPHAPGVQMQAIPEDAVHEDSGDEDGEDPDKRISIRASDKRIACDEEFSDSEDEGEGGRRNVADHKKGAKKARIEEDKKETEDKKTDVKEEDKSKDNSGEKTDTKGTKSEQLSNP
Sequence of HDAC1 (Q13547 whole entry): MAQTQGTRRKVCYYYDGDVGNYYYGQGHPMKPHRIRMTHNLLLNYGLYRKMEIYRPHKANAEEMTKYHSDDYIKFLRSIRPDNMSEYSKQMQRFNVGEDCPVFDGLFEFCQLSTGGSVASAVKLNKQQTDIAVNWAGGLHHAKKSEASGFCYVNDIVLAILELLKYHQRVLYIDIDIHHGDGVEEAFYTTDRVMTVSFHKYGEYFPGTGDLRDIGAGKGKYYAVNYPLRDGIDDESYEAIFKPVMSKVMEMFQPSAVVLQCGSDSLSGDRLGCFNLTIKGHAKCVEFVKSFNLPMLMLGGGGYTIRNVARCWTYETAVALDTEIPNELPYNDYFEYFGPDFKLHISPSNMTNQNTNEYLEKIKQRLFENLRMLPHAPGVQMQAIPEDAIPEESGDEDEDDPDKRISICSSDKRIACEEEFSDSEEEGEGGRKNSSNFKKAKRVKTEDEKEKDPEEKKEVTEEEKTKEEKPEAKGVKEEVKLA

| Compound | SI HDAC1/6 (HDAC1) | SI HDAC2/6 (HDAC2) | SI HDAC3/6 (HDAC3) | SI HDAC10/6 (HDAC10) | also measured |
| --- | --- | --- | --- | --- | --- |
| CCOC(=O)Nc1cccc(-c2csc(NC(=O)CCc3cc(C(=O)NO)no3)n2)c1 [Compound 5, N-[3-[2-[3-[3-(N-Hydroxycarbamoyl)isoxazol-5-yl]propionylamino]thiazol-4-yl]phenyl]carbamic Acid Ethyl Ester] | 80 | 333 | 32 | 82 | – |
| CCOC(=O)Nc1ccc(-c2cc(C(=O)NCCc3cc(C(=O)NO)no3)no2)cc1 [Compound 8, N-[4-[3-[N-[2-[3-(N-Hydroxycarbamoyl)isoxazol-5-yl]ethyl]carbamoyl]isoxazol-5-yl]phenyl]carbamic Acid Ethyl Ester] | 39 | 409 | 51 | 123 | – |
| CC(C)(C)OC(=O)Nc1cccc(-c2cc(C(=O)NCc3ccc(C(=O)NO)cc3)no2)c1 [Compound 14, N-[3-[3-[N-[4-(N-Hydroxycarbamoyl)benzyl]carbamoyl]isoxazol-5-yl]phenyl]carbamic Acid tert-Butyl Ester] | 694 | 2160 | 1230 | 4270 | selectivity over HDAC1 and HDAC3 (HDAC6): at least 400 fold; selectivity over HDAC2 and HDAC10 (HDAC6): more than 3 orders of magnitude |
| CC(C)(C)OC(=O)Nc1ccc(-c2cc(C(=O)NCCc3cc(C(=O)NO)no3)no2)cc1 [Compound 6, N-[4-[3-[N-[2-[3-(N-Hydroxycarbamoyl)isoxazol-5-yl]ethyl]carbamoyl]isoxazol-5-yl]phenyl]carbamic Acid tert-Butyl Ester] | 2817 | – | 3800 | – | IC50 (HDAC2; [1]): > 50 µM; selectivity for HDAC6 over all other isoforms (HDAC6; Table S1 in the supporting information (not available)): highly selective; IC50 (HDAC10; [2]): > 50 µM |
| CC(C)(C)OC(=O)Nc1ccc(-c2cc(C(=O)NCc3ccc(C(=O)NO)cc3)no2)cc1 [Compound 13, N-[4-[3-[N-[4-(N-Hydroxycarbamoyl)benzyl]carbamoyl]isoxazol-5-yl]phenyl]carbamic Acid tert-Butyl Ester] | 1320 | 5760 | 409 | 9580 | selectivity over HDAC1 and HDAC3 (HDAC6): at least 400 fold; selectivity over HDAC2 and HDAC10 (HDAC6): more than 3 orders of magnitude |
| Nc1cccc(-c2cc(C(=O)NCCc3cc(C(=O)NO)no3)no2)c1 [Compound 9, 5-(3-Aminophenyl)-N-[2-[3-(N-hydroxycarbamoyl)isoxazol-5-yl]ethyl]isoxazole-3-carboxamide] | 398 | 140 | 105 | 315 | – |
| O=C(NO)c1ccc(CNC(=O)c2cc(Cn3c4ccccc4c4ccccc43)on2)cc1 [Compound 18, 5-(9H-Carbazol-9-ylmethyl)-N-[4-(hydroxycarbamoyl)benzyl]isoxazole-3-carboxamide] | 825 | 2280 | 798 | 37000 | – |
| CC(C)(C)OC(=O)Nc1cccc(-c2cc(C(=O)NCCc3cc(C(=O)NO)no3)no2)c1 [Compound 7] | – | – | – | – | IC50 (HDAC1; [3]): > 50 µM; IC50 (HDAC2; [1]): > 50 µM; IC50 (HDAC3; [4]): > 50 µM; IC50 (HDAC6; [5]): 0.0077 ± 0.0008 µM; IC50 (HDAC10; [2]): > 50 µM |
| O=C(NO)c1ccc(CNC(=O)c2cc(-c3cccc(NC(=O)C4CCCCC4)c3)on2)cc1 [Compound 16, 5-[3-[(Cyclohexanecarbonyl)amino]phenyl]-N-[4-(N-hydroxycarbamoyl)benzyl]isoxazole-3-carboxamide] | 82 | 1650 | 257 | 73 | – |
| O=C(NO)c1ccc(CNC(=O)c2cc(-c3ccc(NC(=O)C4CCCCC4)cc3)on2)cc1 [Compound 15, 5-[4-[(Cyclohexanecarbonyl)amino]phenyl]-N-[4-(N-hydroxycarbamoyl)benzyl]isoxazole-3-carboxamide] | 65 | 461 | 40 | 38 | – |
| O=C(NO)c1cc(CCNC(=O)c2cc(-c3cccc(NC(=O)C4CCCCC4)c3)on2)on1 [Compound 11, 5-[3-[(Cyclohexanecarbonyl)amino]phenyl]-N-[2-[3-(N-hydroxycarbamoyl)isoxazol-5-yl]ethyl]isoxazole-3-carboxamide] | – | – | – | – | IC50 (HDAC1): > 50 µM; IC50 (HDAC2): > 50 µM; IC50 (HDAC3): > 50 µM; IC50 (HDAC10): > 50 µM |
| CC(C)(C)OC(=O)Nc1ccc(-c2csc(NC(=O)CCCc3cc(C(=O)NO)no3)n2)cc1 [Compound 3, N-[4-[2-[4-[3-(N-Hydroxycarbamoyl)isoxazol-5-yl]butyrylamino]thiazol-4-yl]phenyl]carbamic Acid tert-Butyl Ester] | 10 | 28 | 11 | – | – |
| O=C(NO)c1cc(Cn2c3ccccc3c3ccccc32)on1 [Compound 17, 5-(Carbazol-9-ylmethyl)isoxazole-3-carbohydroxamic Acid] | 26 | – | 29 | – | IC50 (HDAC1): 38.7 µM; IC50 (HDAC2): > 50 µM; IC50 (HDAC3): 44 µM; IC50 (HDAC6): 1.51 ± 0.065 µM; IC50 (HDAC10): > 50 µM |
| O=C(Nc1cccc(-c2cc(C(=O)NCCc3cc(C(=O)NO)no3)no2)c1)c1ccccc1 [Compound 12, 5-[3-(Benzoylamino)phenyl]-N-[2-[3-(N-hydroxycarbamoyl)isoxazol-5-yl]ethyl]isoxazole-3-carboxamide] | 666 | 2360 | 1600 | 1050 | – |
| CC(C)(C)C(=O)Nc1cccc(-c2cc(C(=O)NCCc3cc(C(=O)NO)no3)no2)c1 [Compound 10, 5-[2-[[5-[3-[(2,2-Dimethylpropionyl)amino]phenyl]isoxazole-3-carbonyl]amino]ethyl]isoxazole-3-carbohydroxyamic Acid] | – | – | – | 1910 | IC50 (HDAC1; [3]): > 50 µM; IC50 (HDAC2; [1]): > 50 µM; IC50 (HDAC3; [4]): > 50 µM; selectivity index (SI) (HDAC6; HDAC6 over the other isoforms tested): at least 1900; IC50 (HDAC6; [5]): 0.0212 ± 0.0009 µM; IC50 (HDAC10; [2]): 40.1 µM |
